For one test, the system named is epi-5DS (5-deoxystrigol). As to the kind of experiment: LC-MS/MS levels of epi-5DS in rice root exudates and roots. It is filed as in vivo. The conditions noted are these: −Pi, 5 μM zaxinone. As to the method: (§1) For the analysis of SLs, one week-old seedlings were further transferred into 50 ml falcon tube (three seedlings per tube) containing Hoagland nutrient solution with K2HPO4·2H2O (+Pi) and grown in the growth cabinet for one week. The rice seedlings were then subjected to phosphate deficiency for another one week period. On the day of root exudates collection, rice seedlings were first treated with 5 μM zaxinone for 6 h and then root exudates and root tissues were collected from each tube for LC-MS/MS analysis and Striga bioassays.
(§2) For the quantification of 4-deoxyorobanchol in rice root exudates, 50 ml of root exudate spiked with 0.672 ng of D6-5-deoxystrigol, was brought on a 500 mg/3 ml fast SPE C18 column preconditioned with 6 ml of methanol and 6 ml of water. After washing with 6 ml of water, strigolactones were eluted in 5 ml of acetone. The 4-deoxyorobanchol fraction (acetone-water solution) was concentrated to SLs aqueous solution (˜1 ml), followed by extraction with 1 ml of ethyl acetate. Then 750 μl of 4-deoxyorobanchol enriched organic phase was transferred to a 1.5 ml tube and evaporated to dryness under vacuum. The residue was dissolved in 100 μl of acetonitrile:water (25:75, v:v) and filtered through a 0.22 μm filter for LC-MS/MS analysis.
(§3) For the quantification of 4-deoxyorobanchol in rice root, plant tissue material was lyophilized and ground. 30 mg root tissue spiked with 0.672 ng of D6-5-deoxystrigol was extracted with 2 ml of ethyl acetate in an ultrasound bath (Branson 3510 ultrasonic bath) for 15 minutes, followed by centrifugation for 8 minutes at 3800 rpm at 4° C. The supernatant was collected and the pellet was re-extracted with 2 ml of ethyl acetate. The two supernatants were then combined and dried under vacuum. The residue was dissolved in 100 μl of ethyl acetate and 2 ml of hexane. The resulting extract solution was loaded on a Silica gel SPE column (500 mg/3 ml) preconditioned with 3 ml of ethyl acetate and 3 ml of Hexane. After washing with 3 ml of Hexane, 4-deoxyorobanchol was eluted in 3 ml of ethyl acetate and evaporated to dryness under vacuum. The residue was re-dissolved in 200 μl of acetonitrile:water (25:75, v:v) and filtered through a 0.22 μm filter for LC-MS/MS analysis.
(§4) 4-Deoxyorobanchol was analyzed by using HPLC-Q-Trap-MS/MS with MRM mode. Chromatographic separation was achieved on an Agilent 1200 HPLC system with an Acquity UPLC BEH C18 column (50×2.1 mm; 1.7 μm; Waters Corp.). Mobile phases consisted of water:acetonitrile (95:5, v:v, A) and acetonitrile (B), both containing 0.1% formic acid. […]
The levels of epi-5DS (5-deoxystrigol) in root exudates (FIG. 15A) and roots (FIG. 15B) for WT and zas mutant rice under −Pi conditions (phosphate deficient) with zaxinone (5 μM) treatment were determined by LC-MS/MS. […]

For test [1], the system named is wild-type and zas mutant rice plants. In words: Rescue of zas mutant phenotype, soil-grown rice in rhizotron root analysis system. It is filed as in vivo, Oryza sativa Nipponbare. The conditions noted are these: 10 μM zaxinone. Here is the method:
Three days-old seedlings were grown in soil in Hoagland nutrient solution containing K2HPO4·2H2O (+Pi) with 10 μM zaxinone treatment. The solution was changed every other day for 2 weeks, adding the chemical at each renewal. Plants grown without zaxinone served as the controls and phenotypic data were recorded. To prevent zaxinone degradation from light exposure, 1 μl/ml emulsifier was added into the Hoagland nutrient solution.

The next test relates to 4-deoxyorobanchol (4-DO). As to the kind of experiment: LC-MS/MS quantification of 4-deoxyorobanchol in rice roots and root exudates. It is filed as in vivo. The conditions noted are these: phosphate-starved, 6 h. As to the method:
as §1, §2, §3, §4
SL, 4-deoxyorobanchol (4-DO), was quantified in wild-type and zas mutant roots (FIG. 18A) and root exudates (FIG. 18B) without added zaxinone and in response to zaxinone (5 μM) under phosphate starvation. […]

The values that follow come from US11839210B1, “Plant growth promoter with strigolactones regulation activities” (King Abdullah University of Science and Technology, priority 2017, dated 2023).

Turning to `CC(=O)/C=C/C=C(C)/C=C/C1=C(C)C[C@@H](O)CC1(C)C` [zaxinone, 3-OH-β-apo-13-carotenone], the “decrease of epi-5DS level in root exudates, mock to zaxinone” value with epi-5DS (5-deoxystrigol) (WT rice) is reported as “around 75%”; in the test with epi-5DS (5-deoxystrigol) (zas mutant rice), “approximately 64%”. The “decrease of epi-5DS level in roots, mock to zaxinone” value with epi-5DS (5-deoxystrigol) (WT rice) is reported as “around 50%”; with epi-5DS (5-deoxystrigol) (zas mutant rice) it was “around 75%”. Further, the “shoots and roots vs untreated control seedlings (visual)” value in test [1] (wild-type seedlings) was “some improvement”; in test [1] (zas mutant seedlings), “substantial improvement”. Besides, in test [1] (zas mutant), the “increase of shoot length over untreated seedlings” value was “about 10 cm”. Moreover, in test [1] (zas mutant), the “shoot biomass vs untreated” value was “doubled”. For the same molecule, the root surface area in test [1] (zas mutant, untreated 15-20 cm^2) is given as 25-50 cm^2. For the same molecule, the “SL content in roots and root exudates” value in the test with 4-deoxyorobanchol (4-DO) (Shiokari d3 mutant, 5 μM) is reported as “lowered”; with 4-deoxyorobanchol (4-DO) (wild-type seedlings, 5 μM zaxinone) it was “Reduction of SL content”. Moreover, the “SL (4-deoxyorobanchol) content in roots after zaxinone” value in the test with 4-deoxyorobanchol (4-DO) (zas mutant seedlings, 5 μM zaxinone, untreated 13) worked out at 5 pgmg^−1dry-root-weight. For the same molecule, in the test on 4-deoxyorobanchol (4-DO) (zas mutant seedlings, 5 μM zaxinone, untreated 35), the “SL (4-deoxyorobanchol) content in root exudates after zaxinone” value was 5 pgmg^−1 dry-root-weight.
